Series [1] in a line: Tissue distribution in rats after a single i.v. dose. The class given is in vivo, Sprague Dawley rats. The settings on record: rat, single i.v. dose 8 mg/kg. Here is the method:
Chromatographic separation was performed using a UPLC system (Waters ACQUITY-CLASS. US) with an analytical column Kinetex (C18, 1.7 μm, 2.1 mm × 100 mm; Phenomenex; California; CA, USA) at 25 °C. Water and methanol (75:25) were used as the isocratic elution, running at a flow rate of 0.2 mL/min. The detector was used with fluorescence (FLR) detection with a fluorescence excitation wavelength of 330 nm and a fluorescence emission wavelength of 439 nm.
For the tissue concentration study of 10-dehydroxyl-12-demethoxy-conophylline, 18 (SD) rats (half male and female) were randomly divided into three groups. The rats were administered intravenously at a dose of 8 mg/kg of 10-dehydroxyl-12-demethoxy-conophylline, and the rats were euthanized at 5, 20, and 45 min after administration. Samples of their tissues and blood were carefully collected and washed with sodium phosphate buffer (pH 7.4) to remove blood. Each tissue (0.2 g) was homogenized in normal saline (1 mL). Subsequently, an amount 120 μL of the homogenate was pipetted into 480 μL of methanol and vortexed for 3 min, and then centrifuged at 14,000 rpm for 10 min. The supernatant was then centrifuged again at 14,000 rpm for 10 min and stored at −70 °C until analysis. The preparation process for analysis was the same as described above for plasma.

Series [2] can be described thus: Plasma protein binding by equilibrium dialysis, rat plasma. The class given is in vitro ADME. The conditions noted are these: Sprague Dawley. The procedure: Protein binding was determined in vitro by equilibrium dialysis of plasma of rats or human serum albumin. Blank dialysate, internal dialysate, and external dialysate were prepared separately. The internal dialysate was prepared by taking 0.4 mL of blank plasma and adding 100 μL of the 10-dehydroxyl-12-demethoxy-conophylline series standard solution to prepare the equivalent of 10-dehydroxyl-12-demethoxy-conophylline plasma concentrations of 0.078, 0.156, 0.312, 0.625, 1.250, 2.500, 5.000, and 20.000 μg/mL simulating biological samples. The external dialysate was prepared by taking 0.4 mL of blank dialysate and adding 100 μL of the 10-dehydroxyl-12-demethoxy-conophylline series standard solution to prepare the equivalent of 10-dehydroxyl-12-demethoxyconophylline plasma concentrations of […] simulating dialysate samples. The protein binding rate of 10-dehydroxyl-12-demethoxy-conophylline in plasma was measured using the equilibrium dialysis method in this experiment. The concentration of unbound compound (B) and bound compound to protein (A) were calculated as follows:F = (A − B)/A,(1) where F is the bounded fraction, A is the compound concentration in the plasma compartment, and B is the concentration of the compound in the phosphate buffer compartment.

The next series concerns HL-60. Set-up: method as in PMID 29772302. The settings on record: cited from earlier work.
Another series has as its system SW480. The arrangement: method as in PMID 29772302. The settings on record: cited from earlier work.

Consider one compound from PMC6359039, “Pharmacokinetics, Tissue Distribution, Plasma Protein Binding Studies of 10-Dehydroxyl-12-Demethoxy-Conophylline, a Novel Anti-Tumor Candidate, in Rats” (Molecules, 2019).

“Also recorded” adds a separate entry of the source.

With `CC[C@@]12CC(C(=O)OC)=C3Nc4cc5c(cc4[C@@]34CCN(C[C@H]3O[C@H]31)[C@@H]24)[C@@H]1C(O5)[C@@H](O)[C@@]2(CC)CC(C(=O)OC)=C3Nc4cc(OC)ccc4[C@@]34CCN1[C@@H]24` (some centres unmarked) [10-dehydroxyl-12-demethoxy-conophylline, 10-Dehydroxyl-12-demethoxy-conophylline], the “concentration in the brain” value in series [1] is given as “kept to a small amount”. Moreover, the “tissue distribution at 5 min” value in series [1] (5 min) was “in the heart and kidney were markedly higher than in other tissues”. In series [1] (20 min (equilibrium time)), the “tissue distribution at 20 min” value is on record as “the drug concentration in the lung reached the highest at this time”. Moreover, the “tissue distribution at 45 min” value in series [1] (45 min (elimination period)) was “mainly distributed in the liver and kidney tissues”. Besides, the “tissue distribution, tissues with highest levels” value in series [1] (overall, 8 mg/kg) is “detected in all examined tissues with the highest in kidney, liver, and lung; also recorded: the distribution in the kidney and lung is the highest”. The fraction unbound at 1 µg/mL in series [2] (1.00 µg/mL, equilibrium dialysis, read-out: protein binding degree (converted)) was 0.181. The fraction unbound at 2.5 µg/mL in series [2] (2.50 µg/mL, equilibrium dialysis, read-out: protein binding degree (converted)) was 0.174. Further, in series [2] (5.00 µg/mL, equilibrium dialysis, read-out: protein binding degree (converted)), the fraction unbound at 5 µg/mL is 0.188. The fraction unbound in series [2] (rat, three concentrations (1.00, 2.50 and 5.00 µg/mL), summary in abstract, read-out: protein binding degree) is under 0.2. In the series on HL-60, the “inhibitory activity on HL-60 tumor cell line” value is “significant inhibitory activity”. In addition, the “inhibitory activity on SW480 tumor cell line” value in the series on SW480 is “significant inhibitory activity”.
